What all share (type): cell-based
The subject of one series is EV-A71 IRES activity. Kind of series: Dual-luciferase IRES reporter assay in HEK 293T cells pre-treated with peptides. Conditions: 25 μM for 2 hours; for decrease of 2Apro-induced viral IRES activity: 24 h. As for the experimental part: (§1) FIGS. 10A-10K. Peptide S78 inhibited EV-A71 replication and propagation. (FIG. 10A) RD cells were pre-treated with peptides S78 or for 2 hours and infected with EV-A71 at the MOI of 10 for 6 hours. Cell lysates were collected for western blot assay. Hsp27 phosphorylation on Ser 15, 78, 82 were detected by specific antibodies. β-Actin were detected as internal control. (FIG. 10B) Densitometric analysis of FIG. 9A. (FIG. 10C) HEK 293T cells were pre-treated with peptides S78 or S78A at the concentration of 25 μM for 2 hours and then co-transfected with Hsp27-WT plasmid (800 ng), pIRES reporter plasmid (200 ng) and 2A^pro-expressing plasmid or 2AC110A-expressing plasmid (200 ng) for 24 h, then the luciferase activity was measured. (FIG. 10D-10E) RD cells were treated with peptides S78 or S78A and then infected with EV-A71. EV-A71 VP1 were detected. (FIG. 10F) RD cells were treated with peptides and then infected with EV-A71 at the MOI of 1 for 12 hours. The EV-A71-induced CPE was captured. (FIG. 10G-10H) Intracellular viral RNA was extracted and quantified by qPCR. (FIG. 10I) Densitometric analysis FIG. 9D-E. (FIG. 10J) RD cells were treated with peptides S78 or and then infected with EV-A71 at the MOI of 1 for 12 hours. Extracellular viral RNA was extracted and quantified by qPCR. (FIG. 10K) Viral titration was calculated by TCID50. The Statistical analyses were carried out using Student's t-test. *: p<0.05, **: p<0.01, ***: p<0.001. Data are expressed as mean ±SD.
FIGS. 11A-11G Inhibition of EV-A71 Protein Translation and Viral Reproduction by peptide S82A. (FIG. 11A) HEK 293T cells were pre-treated with peptides NC, S78, S78A, S82A, or S78-3A at the concentration of 25 μM for 2 hours and then co-transfected with Hsp27-WT plasmid (800 ng), pIRES reporter plasmid (200 ng) and 2A^pro-expressing plasmid for 24 h, then the luciferase activity was measured. (FIG. 11B) RD cells were pre-treated with peptides NC at indicated concentrations for 2 hours and infected with EV-A71 at the MOI of 1 for 9 hours. Intracellular viral RNA was extracted and quantified by qPCR. […] EV-A71 VP1 were detected. β-Actin was detected as an internal control. (FIG. 11F) Densitometric analysis of the EV-A71 VP1 level in FIG. S7C-E was quantified and normalized with β-Actin using ImageJ. […] Viral titration was calculated. […] Data are expressed as mean ±SD.
HEK 293T cells were seeded in 24-wells, and then co-transfected with plasmids to simultaneously express 2A^pro (200 ng), pIRES reporter (200 ng), and the wild-type Hsp27 or its mutants (800 ng). […] The Renilla luciferase (RLuc) and Firefly luciferase (FLuc) activity were determined by using a dual-luciferase reporter assay (Promega) according to the manufacturer's instructions in a Lumat LB9507 bioluminometer.
Background: In a reporter assay the amount or activity of a reporter protein is the signal.

A short description of another series: CCK-8 assay. The settings on record: human; RD cells, data not shown. As for the experimental part:
RD cells were seeded in 96-well cell plates (1×10^4/well) and placed in the 5% CO2 incubator for 1 day. Then the cells were treated with peptides for 2 days. 90 μl medium and 10 μl of CCK-8 (BioSharp, BS350B) was added to each well of the 96-well plate, which were incubated at 37° C. for 1 h. A microplate reader (BioTek, Synergy H1) was used to measure the OD value of each well at 450 nm.
For orientation: Formazan colour is commonly taken as a measure of viable cells.

Another series relates to EV-A71. The series is described as follows: EV-A71-induced cytopathic effect (CPE) on RD cells. The settings on record: EV-A71 MOI 1 for 12 hours. The procedure: as §1, with “The Statistical analyses were carried out using Student's t-test. *: p<0.05, **: p<0.01, ***: p<0.001.” left out, “±SD. […]” for “±SD.”

As a reminder, the CC50 is the concentration giving 50% cytotoxicity. Consider Ac-RKKRRQRRRAYSRALARQLSS-NH2 [S78A], for which the “decrease of 2Apro-induced viral IRES activity” value with EV-A71 IRES activity was “about 10%”. Besides, the CC50 at 2 days in the series “CCK-8 assay” was greater than 600 µM. In addition, the “protection from EV-A71-induced CPE” value in the series with EV-A71 was “mild protection”.

On to Ac-RKKRRQRRRAYSRALSRQLSS-NH2 [S78], for which the “decrease of 2Apro-induced viral IRES activity” value with EV-A71 IRES activity came out at 34%. Moreover, the CC50 at 2 days in “CCK-8 assay” is greater than 600 µM. Also, the “protection from EV-A71-induced CPE” value in the series with EV-A71 was “dramatically protected”.

Take “Ac-RKKRRQRRRYSREANQPKPSPKRESGEE-NH2 [NC, reference compound]”: the “effect on viral IRES activity (in words)” value in the series with EV-A71 IRES activity (24 h (FIG. 11A)) is “did not affect”.

The record behind these values is patent publication US20250368687A1, “SHORT SYNTHETIC PEPTIDES AND USES THEREOF IN THE TREATMENT OF ENTEROVIRUS INFECTION” (CITY UNIVERSITY OF HONG KONG, priority 2024, published 2025).
